Measurements from publication PMC3584069, “The Interaction of the Chemotherapeutic Drug Chlorambucil with Human Glutathione Transferase A1-1: Kinetic and Structural Analysis” (PLoS ONE, 2013).

Columns and labels:
[1] = molecular target: T1, human glutathione transferase A1-1 (hGSTA1-1) (Homo sapiens, UniProt P08263); experiment: X-ray crystal structure (GSH moiety of the GSH–CBL adduct); initial velocity kinetics with GSH as variable substrate; assay type: binding
T1 construct: gene GSTA1; recombinant purified hGSTA1-1 homodimer
T1 sequence (P08263 2-222): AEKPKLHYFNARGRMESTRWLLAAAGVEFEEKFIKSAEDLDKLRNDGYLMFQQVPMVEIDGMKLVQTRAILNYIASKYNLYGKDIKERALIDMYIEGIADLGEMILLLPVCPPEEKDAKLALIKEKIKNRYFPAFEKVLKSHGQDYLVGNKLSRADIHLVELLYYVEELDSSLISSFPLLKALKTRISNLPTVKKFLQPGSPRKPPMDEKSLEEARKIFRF

[2] = molecular target: T1, human glutathione transferase A1-1 (hGSTA1-1); experiment: irreversible enzyme inactivation kinetics in absence of GSH (apparent KD, fast phase), MALDI-TOF MS of CBL-modified subunit, DTNB cysteine titration; also a substrate in presence of GSH; assay type: biochemical; details: read-out: Kd
[3] = molecular target: the molecule itself; experiment: crystal structure; hGSTA1-1 (19.7 mg/mL) incubated with CBL at 1:3 molar ratio; 17-20% PEG 2000, 0.1 M Tris-HCl pH 7.5, 0.1 mM beta-mercaptoethanol, vapor diffusion at 20°C; 2.1 Å; monomers A and B in the model

Molecule: N[C@@H](CCC(=O)N[C@@H](CS)C(=O)NCC(=O)O)C(=O)O [GSH]
- X-ray crystal structure (GSH moiety of the GSH-CBL adduct); initial velocity kin [1]: Difference Fourier electron density maps indicate the presence of a GSH moiety in the G-site of the enzyme

Molecule: O=C(O)CCCc1ccc(N(CCCl)CCCl)cc1 [chlorambucil]
- KI (inactivation) [2]: 2950 ± 500 µM

B1: human glutathione transferase A1-1 (enzyme)
chain: KPKLHYFNARGRMESTRWLLAAAGVEFEEKFIKSAEDLDKLRNDGYLMFQQVPMVEIDGMKLVQTRAILNYIASKYNLYGKDIKERALIDMYIEGIADLGEMILLLPVCPPEEKDAKLALIKEKIKNRYFPAFEKVLKSHGQDYLVGNKLSRADIHLVELLYYVEELDSSLISSFPLLKALKTRISNLPTVKKFLQPGSPRKPPMDEKSLEEARKIF
notes: glutathione transferase A1 subunit, human; the crystal model holds residues 4-220 (monomer A) and 3-221 (monomer B, without 112-115); Homodimer; MALDI-TOF of the unmodified subunit: m/z 25,482; also called hGSTA1-1; GSTA1-1; source: recombinant
- binding result [3]: binds
